The subject of assay [1] is Trichoplusia ni (cabbage looper) larvae. The assay can be described thus: In-vitro insecticidal efficacy (mortality and bioactivity, treated artificial diet, Abbott and Colby formulas) against Trichoplusia ni. It is filed as in vivo. The note with it: aliphatic acid (salt) 500 ppm, alone or combined; for Survival Rate (100-(mortality + stunted)): Table 70B, Coragen 0.505 ppm (0.09292 ppm chlorantraniliprole). On the procedure: An artificial diet suitable for Trichoplusia ni (cabbage looper caterpillar) was prepared from a commercially available general purpose lepidoptera artificial diet premix (such as General Purpose Lepidoptera Diet available from Frontier Scientific Services, Newark, DE) and mixed in a heated liquid agar media (0.022 g agar per ml of water). The liquid artificial diet and agar media was then used to fill each well of a transparent 96-well treatment plate with 200 μL of the artificial diet and agar media, which was allowed to solidify at room temperature and stored at approximately 4 C.
A 20 μL treatment sample of each treatment formulation was then placed on top of the solidified artificial diet media in a well of a 96 well plate and allowed to dry overnight.
The following day, one neonate Trichoplusia ni (cabbage looper) larva (hatched from eggs obtained from the Benzon Research, Inc. of Carlisle, PA, USA) was added to each well of the plate, after which the wells were sealed with a perforated transparent film, allowing air and moisture exchange. The plates were kept in a suitable regulated indoor incubation environment and the larvae were allowed to feed on the treatment overlaid diet/agar media for 5 days. […] Each experiment contained 8 replicates (larvae cells) for each treatment.
(§1) While for SF<1, antagonism is present and for SF=1, the efficacy of the compounds is merely additive.
The following day, one neonate Trichoplusia ni (cabbage looper) larva (hatched from eggs such as available from Benzon Research, Inc. of Carlisle, PA, USA) was added to each well of the plate, after which the wells were sealed with a perforated transparent film, allowing air and moisture exchange. The plates were kept in a suitable regulated indoor incubation environment and the larvae were allowed to feed on the treatment overlaid diet/agar media for 5 days. […] Each experiment contained 8 replicates (larvae cells) for each treatment.
as §1

Assay [2] shares this test system. The assay can be described thus: In-planta insecticidal efficacy (sprayed green cabbage plants, larval survival, Abbott and Colby formulas) against Trichoplusia ni. The note with it: Exirel at […] ([…] cyantraniliprole), aliphatic acids at 750 ppm; for Observed Efficacy, W (%): Abbott formula vs 10% isopropanol control; for Survival Rate (%): in-planta, T. ni larvae on sprayed cabbage, 10% isopropanol. It is filed as in vivo. The method, then: Water and 10% isopropanol were tested as control treatments.
Green cabbage plants (Brassica oleracea var. capitate, Danish Ballhead cultivar) were grown from seed (available from West Coast Seeds, Delta, BC, Canada) in potting soil for 4-6 weeks in a pest-free indoor growing environment. At between 4-6 weeks of age, each cabbage plant was sprayed with 20 mL of treatment solution using a pressurized CO2 sprayer from approximately 18 inches above the plant, and allowed to dry.
as §1
Cyantraniliprole was provided as the active ingredient in Exirel® insecticide (available from FMC Corp., Philadephia, PA, USA), and is present as 10% w/w of the Exirel® insecticide product formulation.

Assay [3] shares this test system. The assay is described as above. The format is in vivo. The note with it: aliphatic acid 750 ppm, alone or combined; for Observed Efficacy, W: Abbott formula.
The next assay deals with Fusarium oxysporum. The assay can be described thus: Synergistic Growth Inhibition Assay (MIC / FIC index, 96-well microtiter, resazurin) against Fusarium oxysporum. It is filed as cell-based. The note with it: Compound B tested alone; 24 hour incubation. On the procedure:
In the Synergistic Growth Inhibition Assay used in accordance with some embodiments of the present disclosure, multiple dilutions of combinations of pesticidal active ingredient and at least one C6-C10 saturated or unsaturated aliphatic acid agents are tested in individual cells for inhibitory activity against a target pest or pathogenic organism. […] In a further such embodiment, the combinations of pesticidal active ingredient and C6-C10 (or alternatively C11 or C12) saturated or unsaturated aliphatic acid agents may be tested in increasing concentrations.
Thus, each well of the microtiter plate is a unique combination of the two agents, at which inhibitory efficacy of the combination against the target pest or pathogen can be determined.
In one embodiment according to the present disclosure, for each row of microtiter cells in the Synergistic Growth Inhibition Assay, the FIC index is calculated from the lowest concentration of the pesticidal active ingredient and one or more C6-C10 saturated or unsaturated aliphatic acid agents necessary to inhibit growth of a target pest or pathogen. The FIC of each component is derived by dividing the concentration of the agent present in that well of the microtiter plate by the minimal inhibitory concentration (MIC) needed of that agent alone to inhibit growth of the target pest or pathogen. […] The FIC index is calculated for each row as follows: […]
On the technique in general: Alamar Blue is a resazurin reagent that responds to reducing activity.

Where [4] appears, read: Table 69B, Coragen 0.2525 ppm (0.04646 ppm chlorantraniliprole), in-vitro.
The mark [5] stands for this setting: Table 72, Coragen […] (0.104 ppm chlorantraniliprole).
[6] abbreviates: Table 71, Coragen […] (0.105 ppm chlorantraniliprole).

On to `CCCCC(CC)C(=O)O` (stereo not drawn) [2-ethylhexanoic acid], for which the “Survival Rate (100-(mortality + stunting))” value in assay [1] (setting [4]) is reported as 95.83%. On the same count and under the same terms, next, `CCCCC(O)C(=O)O` (stereo not drawn) [2-hydroxyhexanoic acid]: 91.67%; `CCCCCCC(O)C(=O)O` (stereo not drawn) [2-hydroxyoctanoic acid]: 100.00%; `CCCCCCCCC(C)C(=O)O` (stereo not drawn) [2-methyldecanoic acid]: 87.50%. As for `CCCCCCC(C)C(=O)O` (stereo not drawn) [2-methyloctanoic acid], the “Survival Rate (100-(mortality + stunting))” value in assay [1] (setting [4]) is given as 95.83%. On the same count and under the same terms, in the case of `CC(O)CC(=O)O` (stereo not drawn) [3-Hydroxybutyric acid, 3-hydroxybutyric acid] it was 95.83%; in that of `CCCCC=CCC(=O)O` [3-Octenoic acid, 3-octenoic acid], 83.33%. Turning to `CCCC=CCC(=O)O` [3-heptenoic acid], the “Survival Rate (100-(mortality + stunted))” value in assay [1] (in-vitro) came to 95.83%. Take `CCCCCCCC(O)CC(=O)O` (stereo not drawn) [3-hydroxdecanoic acid]: the “Survival Rate (100-mortality)” value in assay [1] (Table 69A, Coragen 0.2525 ppm (0.04646 ppm chlorantraniliprole), in-vitro) worked out at 100.00%. In addition, the “Observed Efficacy (mortality), W” value in assay [1] (Table 69A, Coragen 0.2525 ppm, Abbott formula) is 0.00%. Besides, the “Survival Rate (100-(mortality + stunting))” value in assay [1] (setting [4]) came out at 87.50%. Also, the “Observed Efficacy (bioactivity), W” value in assay [1] (Table 69B, bioactivity = mortality + growth stunting, Coragen 0.2525 ppm, Abbott formula) is recorded as 0.00%.

Take `CCCC(C)CC(=O)O` (stereo not drawn) [3-methylhexanoic acid]: the “Survival Rate (100-(mortality + stunting))” value in assay [1] (setting [4]) is 83.33%. On the same count and under the same terms, next, `CCCCCCC(C)CC(=O)O` (stereo not drawn) [3-methylnonanoic acid]: 79.17%.

Take `CCCCCC=CCC(=O)O` [3-nonenoic acid]: the “Survival Rate (100-(mortality + stunted))” value in assay [1] (in-vitro) is recorded as 95.83%. `CCC(C)CCC(=O)O` (stereo not drawn) [4-methylhexanoic acid]: the “Survival Rate (100-(mortality + stunting))” value in assay [1] (setting [4]) is on record as 100.00%. Still for that read-out and setting: in the case of `C=CCCCC(=O)O` [5-hexenoic acid] it was 100.00%. For the molecule `C=CCCCCCCCC(=O)O` [9-Decenoic acid, 9-decenoic acid], in assay [2], the “Observed Efficacy, W (%)” value was −0.4% and the “Survival Rate (%)” value was 65.8%. In assay [1] (setting [4]), the “Survival Rate (100-(mortality + stunting))” value is recorded as 91.67%. On to `O=C(O)CCCCCCCCCO` [10-hydroxydecanoic acid], for which the “Survival Rate” value in assay [3] (setting [5]) is reported as 73.50%; in assay [3] (Table 73, Coragen […] (0.104 ppm chlorantraniliprole)), 40.50%. For the same molecule, the “Observed Efficacy, W” value in assay [3] (Table 72, Coragen […]) was determined as 0.00%; in assay [3] (Table 73, Coragen […]) it was 36.72%. For the same molecule, the “Survival Rate (100-(mortality + stunting))” value in assay [1] (setting [4]) came out at 75.00%. With `O=C(O)CCCCCCCCCCCO` [12-hydroxydodecanoic acid], the “Survival Rate (100-(mortality + stunting))” value in assay [1] (setting [4]) was determined as 91.67%.

As for `C/C=C/C=C/C(=O)[O-].[K+]` [(2E,4E)-2,4 hexadienoic acid potassium salt], in assay [1] (setting [4]), the “Survival Rate (100-(mortality + stunting))” value is 95.83%. The “Survival Rate (100-(mortality + stunted))” value in assay [1] (in-vitro) was determined as 70.83%. Regarding `C/C=C/C=C/C(=O)O` [(2E,4E)-2,4 hexadienoic acid], the “Survival Rate (100-(mortality + stunting))” value in assay [1] (setting [4]) is 79.17%. Regarding `C/C=C/C=C/C(=O)O` [(2E,4E)-2,4-hexadienoic acid], in the assay with Fusarium oxysporum, the “MIC (B)” value stood at 125 µg/mL. As to `CCCCCCCCCC(=O)O` [Decanoic acid], the “Survival Rate (100-(mortality + stunting))” value in assay [1] (setting [4]) came out at 83.33%.

Consider `CCCCCCCCCCCC(=O)O` [Dodecanoic acid], for which, in assay [1] (setting [4]), the “Survival Rate (100-(mortality + stunting))” value was 79.17%. Turning to `CCCCCCC(=O)O` [Heptanoic acid], the “Survival Rate (100-(mortality + stunting))” value in assay [1] (setting [4]) is 91.67%. Turning to `CCCCCC(=O)O` [Hexanoic acid], the “MIC (B)” value with Fusarium oxysporum stood at 290 µg/mL. Further, the “Survival Rate (100-(mortality + stunting))” value in assay [1] (setting [4]) worked out at 87.50%. For the same molecule, the “Survival Rate (100-(mortality + stunted))” value in assay [1] (in-vitro) came to 100%. As for `CCCCCCCCC(=O)O` [Nonanoic acid], in assay [1] (setting [4]), the “Survival Rate (100-(mortality + stunting))” value was 95.83%. Moreover, the “Survival Rate (100-(mortality + stunted))” value in assay [1] (in-vitro) was 62.50%. Take `CCCCCCCC(=O)O` [Octanoic acid]: the “Survival Rate (100-(mortality + stunted))” value in assay [1] (in-vitro) is 95.83%. As for `CCCCCCCCCC(=O)[O-].[K+]` [Potassium Caprate], in assay [2], the “Observed Efficacy, W (%)” value was 5.5% and the “Survival Rate (%)” value is 69.7%. Consider `CCCCCCC/C=C/C(=O)O` [Trans-2-decenoic acid, trans-2-decenoic acid], for which, in assay [3] (setting [5]), the “Survival Rate” value is 81.00%. For the same molecule, the “Observed Efficacy, W” value in assay [3] (Table 72, Coragen […]) is on record as 0.00%. Besides, the “Survival Rate (%)” value in assay [2] was found to be 66.1%. Further, the “Survival Rate (100-(mortality + stunting))” value in assay [1] (setting [4]) came to 79.17%. With `CCC/C=C/C(=O)O` [Trans-2-hexenoic acid, trans-2-hexenoic acid], the “Survival Rate” value in assay [3] (setting [6]) was 56.50%. Further, the “Observed Efficacy, W” value in assay [3] (Table 71, Coragen […]) amounted to 18.71%. For the same molecule, the “Survival Rate (100-(mortality + stunting))” value in assay [1] (setting [4]) is recorded as 91.67%. On to `CCCCC/C=C/C(=O)O` [Trans-2-octenoic acid, trans-2-octenoic acid], for which the “Survival Rate” value in assay [3] (setting [5]) is given as 77.00%. The “Observed Efficacy, W” value in assay [3] (Table 72, Coragen […]) is 0.00%. Further, the “Survival Rate (100-(mortality + stunting))” value in assay [1] (setting [4]) is reported as 70.83%. The “Survival Rate (100-(mortality + stunted))” value in assay [1] (in-vitro) is 87.50%.

Consider `CC/C=C/CC(=O)O` [Trans-3-hexenoic acid, trans-3-hexenoic acid], for which the “Survival Rate” value in assay [3] (setting [6]) came to 64.50%. For the same molecule, the “Observed Efficacy, W” value in assay [3] (Table 71, Coragen […]) was 7.19%. The “Survival Rate (100-(mortality + stunting))” value in assay [1] (setting [4]) turned out to be 91.67%. Turning to `CC/C=C\CC(=O)O` [cis-3-hexenoic acid], the “Survival Rate (100-(mortality + stunting))” value in assay [1] (setting [4]) was determined as 83.33%. Regarding `CCC/C=C/C(=O)[O-].[K+]` [trans-2-Hexenoic acid, potassium salt], in assay [2], the “Observed Efficacy, W (%)” value turned out to be 11.3% and the “Survival Rate (%)” value came to 73.6%.

Consider `CCC/C=C/C(=O)[O-].[K+]` [trans-2-hexenoic acid potassium salt], for which the “Survival Rate (100-(mortality + stunting))” value in assay [1] (setting [4]) is 91.67%. Also, in assay [1] (in-vitro), the “Survival Rate (100-(mortality + stunted))” value worked out at 83.33%.

Turning to `CCCCCC/C=C/C(=O)O` [trans-2-nonenoic acid], the “Survival Rate (100-(mortality + stunting))” value in assay [1] (setting [4]) is 75.00%. The “Survival Rate (100-(mortality + stunted))” value in assay [1] (in-vitro) came out at 100%. As to `CCCCCCCC/C=C/C(=O)O` [trans-2-undecenoic acid], the “Survival Rate (100-(mortality + stunting))” value in assay [1] (setting [4]) was determined as 87.50%. For the molecule `CC/C=C/CC(=O)[O-].[K+]` [trans-3-Hexenoic acid, potassium salt], in assay [2], the “Observed Efficacy, W (%)” value was 7.1% and the “Survival Rate (%)” value is on record as 70.8%.

Turning to `CCCC/C=C/CC(=O)O` [trans-3-octenoic acid], the “Survival Rate (100-(mortality + stunting))” value in assay [1] (setting [4]) came out at 83.33%.

(Values after patent US20240389581A1, “SYNERGISTIC PESTICIDAL COMPOSITIONS AND METHODS FOR DELIVERY OF INSECTICIDAL ACTIVE INGREDIENTS” (TERRAMERA, INC., priority 2021, published 2024).)
